Values quoted from earlier work in PMC2694617 (Journal of medicinal chemistry, 2009).
Where two headings read alike, the source gives them in different places.

Tests used:
[1] = target: T1, human NTS1 (Homo sapiens, UniProt P30989)
[2] = ref [6],[11],[18],[19]
[3] = system: rat model of inflammatory pain; conditions: in vivo
[4] = target: T1, human NTS1; remark: listed apart in the source

T1 sequence (P30989 whole entry): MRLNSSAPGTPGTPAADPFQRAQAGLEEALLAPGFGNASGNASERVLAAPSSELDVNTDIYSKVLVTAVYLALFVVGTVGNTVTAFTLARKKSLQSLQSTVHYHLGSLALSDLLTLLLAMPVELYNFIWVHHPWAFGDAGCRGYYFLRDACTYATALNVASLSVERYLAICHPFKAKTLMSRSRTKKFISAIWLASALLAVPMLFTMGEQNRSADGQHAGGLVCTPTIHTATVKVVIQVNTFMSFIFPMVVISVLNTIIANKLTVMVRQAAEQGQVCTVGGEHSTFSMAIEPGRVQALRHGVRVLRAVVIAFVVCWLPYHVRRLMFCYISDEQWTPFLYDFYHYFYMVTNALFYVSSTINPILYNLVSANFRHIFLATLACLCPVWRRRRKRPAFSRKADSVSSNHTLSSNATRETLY

Substance: (N-methyl-Arg)-Lys-Pro-(L-neo-Trp)-(tert-Leu)-Leu (RKPWLL) [NT69L]
- Kd ([1]; ref [11]): 1.55 nM

Substance: (N-methyl-Arg)-Lys-Pro-(L-neo-Trp)-(tert-Leu)-Leu [NT69L]
- analgesic activity (ref [6],[11],[18],[19]): potent analgesic
- BBB penetration [2]: penetrates the BBB

Substance: NT: endogenous neuropeptide; full-length, unmodified NT
- analgesic activity (mediated spinally and/or supraspinally by NT receptors, ref [5],[6]): potent analgesic activity

Substance: contulakin-G
- potency [3]: picomolar potency

Substance: cyclo(KKPYILKKPYIL) [JMV2012] [listing 1 of 2 here]
- Kd ([1]; ref [12]): 150 nM

Substance: cyclo(KKPYILKKPYIL) [JMV2012] [listing 2 of 2 here]
- analgesic activity (previously described, ref [12]): analgesic

Substance: neurotensin (from UniProt P30990)
- Ki [4]: 0.5 nM
